Results as given in patent US11118208B2, “Methods for modulating protein galactosylation profiles of recombinant proteins using peracetyl galactose” (ARES TRADING S.A., priority 2016, dated 2021).
Where “and” joins values, the source holds several entries; their conditions need not be identical. Equal entries are not always repeated.

Tests used:
Assay type in all cases: cell-based, Chinese hamster
[1] = system: mAb1 cells (CHO-S cells expressing IgG1 mAb1); assay: Fed-batch culture of mAb1 cells in deepwell plates (DWP): viable cell density, viability, titer
Protocol: (§1) First assays were performed with an antibody produced in a CHO cell line: CHO-S cells expressing IgG1 mAb1, herein “Cells mAb1” or “mAb1 cells”. “mAb1” is a fully human monoclonal antibody directed against a soluble protein. Its isoelectric point (pI) is about 8.20-8.30.
(§2) Cells expressing mAb1 were inoculated at 0.3×10^6 cells per millilitre (mL), whereas Cells expressing mAb2 were inoculated at 0.2×10^6 cells per millilitre (mL).
(§3) For examples 1-3: A serum-free chemically defined culture medium was used. It was used as it is, or it was supplemented with α- or β-2-F-peracetyl galactose (herein α- or β-2F-pGal; Biosynth & AX Molecules) at different concentrations (0-200 μM before seeding). The concentrations indicated on FIGS. 1, 2, 3 and 4 are the concentrations in α- or β-2F-pGal in the culture medium at day 0, just before the inoculation. The culture medium was fed, on a regular basis, with a chemically defined feed medium, as well as with glucose in order to keep said glucose level in the range of >0 to about 8 g/L (feeds are done at days 3, 5, 7, 10 and 12).
(§4) The cultures were performed in deepwell plates (DWP) with a working volume of 450 μL. They were incubated at 36.5° C., 5% de CO2, 90% humidity and shaken at 320 rpm. Each of the fed-batch culture lasted 14 days. It is well known that experiments in DWP are artificial, although they allow a first screening of culture conditions. In order to confirm that the results obtained in DWP were reproducible at higher scale, similar experiments were also run in TubeSpin® (also called herein shake tubes or ST), with a working volume of 30 mL cell culture (same culture condition than for deepwell plates).
For DWP experiments, viable cell density and viability were measured with the Guava easyCyte® flow cytometer. Antibody titers were measured with the fortéBIO Octet®.
(§5) The cells were cultivated and the results analysed as disclosed in the material and method section. It is noted that the controls (or control conditions) according to the present invention correspond to cells grown without peracetyl galactose.

[2] = system: galactosylation of mAb1 antibody (mAb1 cells); assay: Glycosylation profile of mAb1 produced in DWP (CGE-LIF)
Protocol: as §1, §3, §4
(§6) Glycosylation profiles were established by capillary gel electrophoresis with laser-induced fluorescence (CGE-LIF; for DWP and for Shake tubes experiments) or by Ultra Performance Liquid Chromatography-2-amino-benzamide labelling technique (2AB-UPLC; for Shake tubes experiments). Groups of glycans were defined as thereafter in Table 3.
as §5

[3] = system: mAb1 cells (CHO-S cells expressing IgG1 mAb1); assay: Fed-batch culture of mAb1 cells in TubeSpin (shake tubes): viable cell density, viability, titer
Protocol: as §1, §2, §3, §4
(§7) For TubeSpin® experiments, viable cell density and viability were measured with the ViCell®. Antibody titers were measured using Biacore®.

[4] = system: galactosylation of mAb1 antibody (mAb1 cells); assay: Glycosylation profile of mAb1 produced in TubeSpin (CGE-LIF); details: for monogalactosylated form changed by (Example 2.2) / total level of galactosylation decreased by (Example 2.2): shake tubes, CGE-LIF
Protocol: as §1, §3, §4, §6

[5] = system: mAb2 cells (CHO-Ki cells expressing IgG1 mAb2); assay: Fed-batch culture of mAb2 cells in TubeSpin: viable cell density, viability, titer
Protocol: (§8) Additional assays were performed with another antibody also produced in another CHO cell line: CHO-Ki cells expressing IgG1 mAb2, herein “Cells mAb2” or “mAb2 cells”. “mAb2” is a humanized monoclonal antibody directed against a receptor found on the cell membrane. Its isoelectric point (pI) is about 9.30.
as §2, §3, §4, §7

[6] = system: galactosylation of mAb2 antibody (mAb2 cells); assay: Glycosylation profile of mAb2 produced in TubeSpin (2AB-UPLC)
Protocol: as §8, §3, §4, §6

SMILES: CC(=O)OC[C@H]1OC(OC(C)=O)[C@H](F)[C@@H](OC(C)=O)[C@H]1OC(C)=O (stereo in doubt) [α-2F-pGal, α/β-D-galactopyranose, 2-deoxy-2-fluoro-,1,3,4,6-tetraacetate]
- decrease of titers comparing to control ([1]; concentration higher than 60 μM): about 1.2 factor
- impact on protein titre ([1]; concentrations between 30 and 60): no impact on protein titre
- impact on cell growth ([1]; concentrations of about 60 μM and higher): negative impact on cell growth
- impact on cell growth until the end of culture ([1]; concentrations up to 30 μM in medium): no impact on cell growth
- protein titer compared to the control ([1]; media concentration up to 60 μM, day 10 and day 14): stays above the protein titer of the control
- impact on cell density, cell viability and protein titer ([1]; media concentrations below 30 μM): do not impact
- G1F absolute change compared to the control ([2]; 30 μM): 1.1%
- G2F absolute change compared to the control ([2]; 30 μM): 0.2%
- absolute change in galactosylated N-oligosaccharide compared to the control ([2]; 30 μM): 1.3%
- relative decrease of galactosylated N-oligosaccharides compared to control ([2]; 30 μM): 17%
- galactosylated N-oligosaccharides of the protein ([2]; 30 μM in medium): 8.3%
- G1F absolute change compared to the control ([2]; 60 μM): 2.5%
- G2F absolute change compared to the control ([2]; 60 μM): 0.3%
- absolute change in galactosylated N-oligosaccharide compared to the control ([2]; 60 μM): 2.8%
- relative decrease of galactosylated N-oligosaccharides compared to control ([2]; 60 μM): 32%
- galactosylated N-oligosaccharides of the protein ([2]; 60 μM in medium): 6.8%
- G1F absolute change compared to the control ([2]; 120 μM): 3.1%
- G2F absolute change compared to the control ([2]; 120 μM): 0.35%
- absolute change in galactosylated N-oligosaccharide compared to the control ([2]; 120 μM): 3.5%
- relative decrease of galactosylated N-oligosaccharides compared to control ([2]; 120 μM): 40%
- galactosylated N-oligosaccharides of the protein ([2]; 120 μM in medium): 6.0%
- G1F absolute change compared to the control ([2]; 200 μM): 4.4%
- G2F absolute change compared to the control ([2]; 200 μM): 0.4%
- absolute change in galactosylated N-oligosaccharide compared to the control ([2]; 200 μM): 4.8%
- relative decrease of galactosylated N-oligosaccharides compared to control ([2]; 200 μM): 52%
- galactosylated N-oligosaccharides of the protein ([2]; 200 μM in medium): 4.8%
- inhibition effect on galactosylation ([2]; below 30): neither α- or β-2F-pGal does have a significant inhibition effect on galactosylation
- inhibition effect on galactosylation ([2]; concentrations higher than 30 μM): a significant inhibition effect is observed
- product titer at the end of the culture (day 14) ([3]; 30 μM, shake tubes): 2050 mg/L
- product titer at the end of the culture (day 14) ([3]; 60 μM, shake tubes, listed as α-2F-p-galactose): 2130 mg/L
- product titer at the end of the culture (day 14) ([3]; 90 μM, shake tubes): 2225 mg/L
- growth inhibitory effect in the first part of the culture ([3]; 30, 60 and 90 μM, shake tubes): no growth inhibitory effect
- cell densities compared to control from day 10 until the end of the culture ([3]; 30 and 90 μM, shake tubes): slightly lower
- impact on cell growth or protein titer until the end of culture ([3]; any one of 30, 60 and 90 μM, TubeSpin): no negative impact on cell growth or protein titer
- effect on cell culture performance ([3]; between 0 and 90 μM α-2F-p-galactose, 60 μM β-2F-p-galactose, shake tubes): No detrimental effect
- protein titer compared to the control at culture days 5, 7, 10, 12 and 14 ([3]; α 30-90 μM, β 60 μM, shake tubes, listed as α-2F-p-galactose): comparable at all time points
- G1F absolute change compared to the control ([4]; 30 μM, TubeSpin): 1.9%
- G2F absolute change compared to the control ([4]; 30 μM, TubeSpin): 0.11%
- relative decrease of galactosylated N-oligosaccharides compared to control ([4]; 30 μM, TubeSpin): about 16%
- monogalactosylated form changed by (Example 2.2) ([4]; 30 μM): −1.9%
- total level of galactosylation decreased by (Example 2.2) ([4]; 30 μM): 2.0%
- G1F absolute change compared to the control ([4]; 60 μM, TubeSpin): 4.3%
- G2F absolute change compared to the control ([4]; 60 μM, TubeSpin): 0.27%
- absolute change of galactosylated N-oligosaccharides compared to the control ([4]; 60 μM, TubeSpin): 4.61% and ~4.5%
- relative decrease of galactosylated N-oligosaccharides compared to control ([4]; 60 μM, TubeSpin): ~37%
- total level of galactosylation decreased by (Example 2.2) ([4]; 60 μM): 4.6%
- monogalactosylated form changed by (Example 2.2) ([4]; 60 μM, listed as α-2F-peracetyl-galactose): −4.3%
- G1F absolute change compared to the control ([4]; 90 μM, TubeSpin): 4.3%
- G2F absolute change compared to the control ([4]; 90 μM, TubeSpin): 0.33%
- relative decrease of galactosylated N-oligosaccharides compared to control ([4]; 90 μM, TubeSpin): ~36%
- monogalactosylated form changed by (Example 2.2) ([4]; 90 μM): −4.3%
- total level of galactosylation decreased by (Example 2.2) ([4]; 90 μM): −4.5%
- titer at day 7 ([5]; 30 μM): ~720 mg/L
- titer at day 14 ([5]; 30 μM): 3400 to 3420 mg/L
- titer at day 7 ([5]; 60 μM): ~720 mg/L
- titer at day 14 ([5]; 60 μM): 3400 to 3420 mg/L
- titer at day 7 ([5]; 90 μM): about 670 mg/L
- titer at day 14 ([5]; 90 μM): ~3200 mg/L
- peak viable cell density ([5]; 90 μM, shake tubes): 10.0 ×106 viable cells/mL
- productivity ([5]; 30 and 60 μM): globally unchanged
- overall viable cell densities compared to the control ([5]; 30 and 60 μM, shake tubes): comparable to the control
- cell viability at day 7 ([5]; entire supplement concentration range): about 97%
- viabilities compared to the control condition ([5]; entire supplement concentration range (30-90 μM)): comparable to the control condition
- effect on the overall fucosylated species [6]: +0.5%
- FA2G1 decrease (absolute change) ([6]; 30 μM): −0.85%
- change of the FA2G2 abundance ([6]; 30 μM): −0.09%
- reduction of galactosylation (absolute change) ([6]; 30 μM): −0.95%
- FA2G1 decrease (absolute change) ([6]; 60 μM): −1.85%
- change of the FA2G2 abundance ([6]; 60 μM): −0.19%
- reduction of galactosylation (absolute change) ([6]; 60 μM): −2.05%
- FA2G1 decrease (absolute change) ([6]; 90 μM): −1.2%
- change of the FA2G2 abundance ([6]; 90 μM): −0.19%
- reduction of galactosylation (absolute change) ([6]; 90 μM): −1.4%
